Experiments:
[1] = oral pharmacokinetic test; assay type: in vivo, ICR mice; details: ICR, mouse, plasma, 10 mg/kg, 10 mg/Kg PO
Experimental: To evaluate the pharmacokinetic properties in vivo, oral pharmacokinetic test was performed with the compounds of Comparative Examples 1 and 4 and Examples 1 and 4 using mice and rats, and the PK parameters are shown in Table 10.
ICR mice (6-7 weeks old) and SD rats (6-7 weeks old) were used for the test. The fasted group was fasted about 16 hours before oral administration, and the fed group was fasted about 4 hours before oral administration. The test drug for oral administration was used by dissolving the drug in a vehicle at a concentration of 1 mg/mL for use, and blood samples were collected (time point: 0.25, 0.5, 1, 2, 4, 8, 12, 24, 32, n=3) from the heart (mouse, 500 μL/time point) or jugular vein (rat, 120 μL/time point). Blood was centrifuged at 12,000 G at 4° C. for 2 minutes to separate plasma, and stored at −80° C. until analysis. • Vehicle A (NMP:PEG400=5:95) • Vehicle B (0.5% methyl cellulose) 6-2. Sampling and Pretreatment
To 20 μl of plasma, 180 μl of acetonitrile (including internal standard) was added. The mixture was vortexed and centrifuged for 5 minutes at 15,000 rpm at 4° C. The supernatant obtained after centrifugation was analyzed by LC-MS/MS.
PK parameters were calculated with a non-compartmental analysis model using Phoenix WinNonlin 6.4 version (Pharsight, USA) program.

CDC2L5 = molecular target: T1, CDC2L5 (Homo sapiens, UniProt Q14004); experiment: scanMAX Kinase panel (DiscoverX); assay type: binding
T1 construct: purchased DiscoverX scanMAX Kinase panel
Experimental: (§1) Among the example compounds of the present invention, the enzyme (kinase) selectivity of the selected compounds of Examples 1 and 4 was measured by requesting DiscoverX. At this time, the experiment was performed using a panel for scanMAX™ Kinase. The concentration of the drug treated to the enzyme was 1 μM in DMSO, and the percentage control (% control) was determined by the method shown in Equation 1 below. (Example Compound−Positive Control)/(Negative Control−Positive control)×100 [Equation 1]
In addition, if the enzyme selectivity of the compound of the present invention was less than the percentage control of 35% (<35%) for each enzyme, it was judged to have activity for the enzyme.

Parental (Ba/F3) = experiment: Ba/F3 cell proliferation inhibition; assay type: cell-based; details: BaF3; 72 hours, Cell Counting Kit-8
In short: (§2)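 Parental and T315I-Bcr-Abl Ba/F3 cells, 1×10^4 per well, exposed 72 h at 37 °C to nine 3-fold dilutions, final 0 to 10 μM. Viability by CCK-8 after 2 h, absorbance 450 nm; GI50 fitted from percent of vehicle-treated cells.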

T315I-Bcr-Abl (Ba/F3) = experiment: Ba/F3 cell proliferation inhibition; assay type: cell-based; details: BaF3; 72 hours, Cell Counting Kit-8
In short: as §2

TAOK1 = molecular target: T2, TAOK1 (Homo sapiens, UniProt Q7L7X3); experiment: scanMAX Kinase panel (DiscoverX); assay type: binding; details: read-out: % Cont @ 1 uM
T2 construct: purchased DiscoverX scanMAX Kinase panel
Experimental: as §1

LYN = molecular target: T3, LYN (Homo sapiens, UniProt P07948); experiment: scanMAX Kinase panel (DiscoverX); assay type: binding; details: read-out: % Cont @ 1 uM
T3 construct: purchased DiscoverX scanMAX Kinase panel
Experimental: as §1

RIOK3 = molecular target: T4, RIOK3 (Homo sapiens, UniProt O14730); experiment: scanMAX Kinase panel (DiscoverX); assay type: binding; details: read-out: % Cont @ 1 uM
T4 construct: purchased DiscoverX scanMAX Kinase panel
Experimental: as §1

MAP4K4 = molecular target: T5, MAP4K4 (Homo sapiens, UniProt O95819); experiment: scanMAX Kinase panel (DiscoverX); assay type: binding; details: read-out: % Cont @ 1 uM
T5 construct: purchased DiscoverX scanMAX Kinase panel
Experimental: as §1

IKK-beta = molecular target: T6, IKK-beta (Homo sapiens, UniProt O14920); experiment: scanMAX Kinase panel (DiscoverX); assay type: binding; details: read-out: % Cont @ 1 uM
T6 construct: purchased DiscoverX scanMAX Kinase panel
Experimental: as §1

[2] = molecular target: T7, ABL1(Q252H)-nonphosphorylated (Homo sapiens, UniProt P00519, Q252H); experiment: scanMAX Kinase panel (DiscoverX); assay type: binding; details: read-out: % Cont @ 1 uM
T7 construct: purchased DiscoverX
Experimental: as §1

STK35 = molecular target: T8, STK35 (Homo sapiens, UniProt Q8TDR2); experiment: scanMAX Kinase panel (DiscoverX); assay type: binding; details: read-out: % Cont @ 1 uM
T8 construct: purchased DiscoverX scanMAX Kinase panel
Experimental: as §1

EPHA1 = molecular target: T9, EPHA1 (Homo sapiens, UniProt P21709); experiment: scanMAX Kinase panel (DiscoverX); assay type: binding; details: read-out: % Cont @ 1 uM
T9 construct: purchased DiscoverX scanMAX Kinase panel
Experimental: as §1

MLK3 = molecular target: T10, MLK3 (Homo sapiens, UniProt Q16584); experiment: scanMAX Kinase panel (DiscoverX); assay type: binding
T10 construct: purchased DiscoverX scanMAX Kinase panel
T10 sequence (Q16584 whole entry): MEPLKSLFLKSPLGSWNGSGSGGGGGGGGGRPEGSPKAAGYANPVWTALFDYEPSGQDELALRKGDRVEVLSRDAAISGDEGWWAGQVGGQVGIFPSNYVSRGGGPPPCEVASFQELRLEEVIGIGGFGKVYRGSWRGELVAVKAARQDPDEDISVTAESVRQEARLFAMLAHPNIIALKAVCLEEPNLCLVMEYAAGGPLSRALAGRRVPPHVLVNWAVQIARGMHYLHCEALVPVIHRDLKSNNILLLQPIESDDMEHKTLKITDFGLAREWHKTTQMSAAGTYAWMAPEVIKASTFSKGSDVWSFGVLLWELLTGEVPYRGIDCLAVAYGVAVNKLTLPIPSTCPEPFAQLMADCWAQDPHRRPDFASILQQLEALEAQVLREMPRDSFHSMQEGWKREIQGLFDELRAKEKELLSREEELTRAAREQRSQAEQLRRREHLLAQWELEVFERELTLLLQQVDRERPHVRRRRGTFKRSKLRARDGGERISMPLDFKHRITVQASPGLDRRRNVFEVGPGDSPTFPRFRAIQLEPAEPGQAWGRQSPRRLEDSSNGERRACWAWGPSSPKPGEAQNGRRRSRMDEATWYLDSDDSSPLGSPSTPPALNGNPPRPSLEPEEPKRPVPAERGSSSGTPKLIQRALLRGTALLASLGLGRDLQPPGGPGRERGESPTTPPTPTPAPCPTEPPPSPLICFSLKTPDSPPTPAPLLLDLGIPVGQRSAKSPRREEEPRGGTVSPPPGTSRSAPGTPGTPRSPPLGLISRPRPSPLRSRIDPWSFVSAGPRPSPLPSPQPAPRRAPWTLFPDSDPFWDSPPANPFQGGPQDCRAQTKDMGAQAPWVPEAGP
Experimental: as §1

FLT3(D835H) = molecular target: T11, FLT3(D835H) (Homo sapiens, UniProt P36888, D835H); experiment: scanMAX Kinase panel (DiscoverX); assay type: binding; details: read-out: % Cont @ 1 uM
T11 construct: purchased DiscoverX scanMAX Kinase panel
Experimental: as §1

IKK-alpha = molecular target: T12, IKK-alpha (Homo sapiens, UniProt O15111); experiment: scanMAX Kinase panel (DiscoverX); assay type: binding; details: read-out: % Cont @ 1 uM
T12 construct: purchased DiscoverX scanMAX Kinase panel
Experimental: as §1

NEK4 = molecular target: T13, NEK4 (Homo sapiens, UniProt P51957); experiment: scanMAX Kinase panel (DiscoverX); assay type: binding; details: read-out: % Cont @ 1 uM
T13 construct: purchased DiscoverX scanMAX Kinase panel
T13 sequence (P51957 whole entry): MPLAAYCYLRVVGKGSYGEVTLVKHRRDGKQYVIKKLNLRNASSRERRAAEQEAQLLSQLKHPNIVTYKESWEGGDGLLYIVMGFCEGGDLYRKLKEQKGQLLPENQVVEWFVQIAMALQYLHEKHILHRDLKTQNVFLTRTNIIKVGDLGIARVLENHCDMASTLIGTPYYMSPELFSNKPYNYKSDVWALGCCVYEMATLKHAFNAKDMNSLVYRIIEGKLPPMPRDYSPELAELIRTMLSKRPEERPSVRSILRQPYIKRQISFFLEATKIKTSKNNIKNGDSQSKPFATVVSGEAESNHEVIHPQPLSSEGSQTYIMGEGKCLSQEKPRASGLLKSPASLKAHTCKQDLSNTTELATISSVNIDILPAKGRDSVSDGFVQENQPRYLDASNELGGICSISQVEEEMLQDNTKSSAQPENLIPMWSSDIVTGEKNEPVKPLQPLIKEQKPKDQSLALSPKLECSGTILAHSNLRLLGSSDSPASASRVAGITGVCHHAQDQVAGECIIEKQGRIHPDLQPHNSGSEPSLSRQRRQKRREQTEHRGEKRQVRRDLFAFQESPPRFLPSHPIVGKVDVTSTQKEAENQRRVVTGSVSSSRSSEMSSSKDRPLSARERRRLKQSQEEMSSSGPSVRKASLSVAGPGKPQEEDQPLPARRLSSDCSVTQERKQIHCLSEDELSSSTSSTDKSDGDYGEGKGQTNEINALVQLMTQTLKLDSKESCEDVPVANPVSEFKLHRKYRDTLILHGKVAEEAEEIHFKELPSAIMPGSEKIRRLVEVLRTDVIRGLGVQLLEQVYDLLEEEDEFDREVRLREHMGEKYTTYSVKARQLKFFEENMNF
Experimental: as §1

CDC2L2 = molecular target: T14, CDC2L2 (Homo sapiens, UniProt Q9UQ88); experiment: scanMAX Kinase panel (DiscoverX); assay type: binding; details: read-out: % Cont @ 1 uM
T14 construct: purchased DiscoverX scanMAX Kinase panel
Experimental: as §1

BRK = molecular target: T15, BRK (Homo sapiens, UniProt Q13882); experiment: scanMAX Kinase panel (DiscoverX); assay type: binding; details: read-out: % Cont @ 1 uM
T15 construct: purchased DiscoverX scanMAX Kinase panel
Experimental: as §1

[3] = molecular target: T16, EGFR(L747-E749del, A750P) (Homo sapiens, UniProt P00533, A750P/DEL747-749); experiment: scanMAX Kinase panel (DiscoverX); assay type: binding
T16 construct: purchased DiscoverX scanMAX Kinase panel
Experimental: as §1

TNK2 = molecular target: T17, TNK2 (Homo sapiens, UniProt Q07912); experiment: scanMAX Kinase panel (DiscoverX); assay type: binding; details: read-out: % Cont @ 1 uM
T17 construct: purchased DiscoverX scanMAX Kinase panel
Experimental: as §1

HPK1 = molecular target: T18, HPK1 (Homo sapiens, UniProt Q92918); experiment: scanMAX Kinase panel (DiscoverX); assay type: binding; details: read-out: % Cont @ 1 uM
T18 construct: purchased DiscoverX scanMAX Kinase panel
Experimental: as §1

FYN = molecular target: T19, FYN (Homo sapiens, UniProt P06241); experiment: scanMAX Kinase panel (DiscoverX); assay type: binding; details: read-out: % Cont @ 1 uM
T19 construct: purchased DiscoverX scanMAX Kinase panel
T19 sequence (P06241 whole entry): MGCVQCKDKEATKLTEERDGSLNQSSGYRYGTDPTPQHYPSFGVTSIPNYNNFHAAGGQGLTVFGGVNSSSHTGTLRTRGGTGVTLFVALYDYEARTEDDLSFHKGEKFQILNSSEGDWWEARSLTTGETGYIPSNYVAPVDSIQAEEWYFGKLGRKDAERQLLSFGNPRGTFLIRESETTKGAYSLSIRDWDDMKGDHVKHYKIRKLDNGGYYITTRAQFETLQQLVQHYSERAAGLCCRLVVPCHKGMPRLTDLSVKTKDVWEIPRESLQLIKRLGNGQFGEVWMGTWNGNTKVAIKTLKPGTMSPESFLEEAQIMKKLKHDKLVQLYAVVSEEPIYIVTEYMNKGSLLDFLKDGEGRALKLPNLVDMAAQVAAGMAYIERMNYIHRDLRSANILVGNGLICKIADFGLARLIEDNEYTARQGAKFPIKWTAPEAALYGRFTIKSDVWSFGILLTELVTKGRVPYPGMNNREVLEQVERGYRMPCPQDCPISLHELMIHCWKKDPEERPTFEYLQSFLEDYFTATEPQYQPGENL
Experimental: as §1

LRRK2 = molecular target: T20, LRRK2 (Homo sapiens, UniProt Q5S007); experiment: scanMAX Kinase panel (DiscoverX); assay type: binding; details: read-out: % Cont @ 1 uM
T20 construct: purchased DiscoverX scanMAX Kinase panel
T20 sequence (Q5S007 whole entry): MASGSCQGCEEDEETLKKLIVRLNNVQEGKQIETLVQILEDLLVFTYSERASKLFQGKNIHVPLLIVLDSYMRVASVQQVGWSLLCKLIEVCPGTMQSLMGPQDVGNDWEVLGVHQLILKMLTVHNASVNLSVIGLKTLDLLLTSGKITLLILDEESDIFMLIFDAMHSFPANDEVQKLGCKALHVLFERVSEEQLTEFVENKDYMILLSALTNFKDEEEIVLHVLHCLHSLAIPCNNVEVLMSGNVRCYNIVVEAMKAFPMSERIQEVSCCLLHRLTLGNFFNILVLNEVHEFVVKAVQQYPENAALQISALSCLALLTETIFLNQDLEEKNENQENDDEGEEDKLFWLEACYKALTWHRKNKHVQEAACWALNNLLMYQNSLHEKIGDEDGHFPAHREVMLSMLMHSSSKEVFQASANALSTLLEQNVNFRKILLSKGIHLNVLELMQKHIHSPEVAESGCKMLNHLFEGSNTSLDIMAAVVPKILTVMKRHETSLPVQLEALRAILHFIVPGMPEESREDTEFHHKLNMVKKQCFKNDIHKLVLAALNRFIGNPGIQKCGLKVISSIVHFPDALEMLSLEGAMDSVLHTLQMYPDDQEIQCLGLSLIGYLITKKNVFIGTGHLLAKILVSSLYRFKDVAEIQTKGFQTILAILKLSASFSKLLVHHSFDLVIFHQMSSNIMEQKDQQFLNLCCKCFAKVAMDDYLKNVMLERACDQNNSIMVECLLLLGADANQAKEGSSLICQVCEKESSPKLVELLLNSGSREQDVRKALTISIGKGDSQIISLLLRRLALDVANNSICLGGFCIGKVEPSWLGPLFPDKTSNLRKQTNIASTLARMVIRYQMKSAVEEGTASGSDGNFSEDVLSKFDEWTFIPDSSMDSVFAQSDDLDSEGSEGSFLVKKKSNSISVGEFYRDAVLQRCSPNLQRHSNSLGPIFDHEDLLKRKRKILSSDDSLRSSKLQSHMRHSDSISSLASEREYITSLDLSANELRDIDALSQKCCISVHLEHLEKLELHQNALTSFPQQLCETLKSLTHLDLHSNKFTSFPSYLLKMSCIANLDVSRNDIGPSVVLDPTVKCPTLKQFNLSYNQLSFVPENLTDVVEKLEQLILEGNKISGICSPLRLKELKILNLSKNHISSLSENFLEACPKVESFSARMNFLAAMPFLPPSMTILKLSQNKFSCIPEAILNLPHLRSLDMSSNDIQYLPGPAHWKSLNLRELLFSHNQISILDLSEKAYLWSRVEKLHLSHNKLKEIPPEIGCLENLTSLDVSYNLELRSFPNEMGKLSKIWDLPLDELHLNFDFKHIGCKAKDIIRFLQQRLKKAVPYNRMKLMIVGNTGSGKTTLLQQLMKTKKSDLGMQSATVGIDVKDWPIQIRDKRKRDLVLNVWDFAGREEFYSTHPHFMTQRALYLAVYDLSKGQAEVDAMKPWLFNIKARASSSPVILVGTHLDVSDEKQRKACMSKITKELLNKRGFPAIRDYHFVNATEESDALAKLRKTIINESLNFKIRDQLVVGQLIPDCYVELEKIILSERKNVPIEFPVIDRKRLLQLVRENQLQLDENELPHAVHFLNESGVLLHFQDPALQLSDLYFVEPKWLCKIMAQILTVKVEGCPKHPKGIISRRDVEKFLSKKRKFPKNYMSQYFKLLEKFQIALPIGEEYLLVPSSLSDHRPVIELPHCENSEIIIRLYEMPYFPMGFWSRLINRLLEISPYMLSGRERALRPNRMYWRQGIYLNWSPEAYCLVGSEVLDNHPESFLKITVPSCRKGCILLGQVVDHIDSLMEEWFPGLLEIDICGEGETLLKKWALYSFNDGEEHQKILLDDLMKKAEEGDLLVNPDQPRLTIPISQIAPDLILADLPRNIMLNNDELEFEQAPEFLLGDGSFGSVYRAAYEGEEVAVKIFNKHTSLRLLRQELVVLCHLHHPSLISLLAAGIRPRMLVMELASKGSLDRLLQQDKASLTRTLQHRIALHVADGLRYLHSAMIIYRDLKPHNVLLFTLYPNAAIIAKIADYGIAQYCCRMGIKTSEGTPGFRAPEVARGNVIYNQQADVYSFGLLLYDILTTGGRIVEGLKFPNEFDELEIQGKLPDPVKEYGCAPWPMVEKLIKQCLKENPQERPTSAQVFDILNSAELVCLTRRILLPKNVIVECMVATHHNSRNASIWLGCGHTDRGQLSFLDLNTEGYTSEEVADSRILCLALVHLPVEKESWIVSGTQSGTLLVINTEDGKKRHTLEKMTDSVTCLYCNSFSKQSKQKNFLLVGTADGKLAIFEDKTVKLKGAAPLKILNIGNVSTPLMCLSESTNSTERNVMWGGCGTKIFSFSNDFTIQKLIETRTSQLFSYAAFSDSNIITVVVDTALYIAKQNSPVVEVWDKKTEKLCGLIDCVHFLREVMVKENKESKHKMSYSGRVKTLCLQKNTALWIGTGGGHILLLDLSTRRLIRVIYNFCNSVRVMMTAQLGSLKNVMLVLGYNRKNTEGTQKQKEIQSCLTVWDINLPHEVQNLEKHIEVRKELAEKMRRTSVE
Experimental: as §1

TNNI3K = molecular target: T21, TNNI3K (Homo sapiens, UniProt Q59H18); experiment: scanMAX Kinase panel (DiscoverX); assay type: binding; details: read-out: % Cont @ 1 uM
T21 construct: purchased DiscoverX scanMAX Kinase panel
Experimental: as §1

[4] = vehicle B (0.5% methyl cellulose)

| Structure (SMILES) | AUC(0-t) [1, 4] [ng·h/mL] | Cmax [1, 4] [ng/mL] | half-life [1, 4] [h] | % Cont @ 1 uM (CDC2L5) [%] | GI50 (Parental (Ba/F3)) [nM] | GI50 (T315I-Bcr-Abl (Ba/F3)) [nM] | remaining binding at 1 µM (TAOK1) [%] | percent of control binding at 1 µM (LYN) [%] | remaining binding at 1 µM (RIOK3) [%] | remaining binding at 1 µM (MAP4K4) [%] | percent of control binding at 1 µM (IKK-beta) [%] | remaining binding at 1 µM [2] [%] | remaining binding at 1 µM (STK35) [%] | remaining binding at 1 µM (EPHA1) [%] | % Cont @ 1 uM (MLK3) [%] | remaining binding at 1 µM (FLT3(D835H)) [%] | remaining binding at 1 µM (IKK-alpha) [%] | remaining binding at 1 µM (NEK4) [%] | remaining binding at 1 µM (CDC2L2) [%] | remaining binding at 1 µM (BRK) [%] | further results |
| --- | --- | --- | --- | --- | --- | --- | --- | --- | --- | --- | --- | --- | --- | --- | --- | --- | --- | --- | --- | --- | --- |
| Cc1cn(-c2cc(NC(=O)c3cc(C#Cc4cnc5c(Nc6cnn(C)c6)cccn45)c(C)cc3F)cc(C(C)(C)C#N)c2)cn1 [Example 1, N-(3-(2-cyanopropane-2-yl)-5-(4-methyl-1H-imidazol-1-yl)phenyl)-2-fluoro-4-methyl-5-((8-((1-methyl-1H-pyrazol-4-yl)amino)imidazo[1,2-a]pyridin-3-yl)ethynyl)benzamide] | 80300 | 10000 | 2.4 | 21 | > 5000 | < 50 | 11 | 0.5 | 31 | 0.75 | 26 | 15 | 10 | 4.1 | 10 | 0.45 | 31 | 28 | 24 | 13 | AUC(0-t) ([1]; vehicle A (NMP:PEG400=5:95)): 138000 ng·h/mL; Cmax ([1]; vehicle A (NMP:PEG400=5:95)): 8570 ng/mL; half-life ([1]; vehicle A (NMP:PEG400=5:95)): 2.5 h; % Cont @ 1 uM [3]: 11%; remaining binding at 1 µM (TNK2): 31%; remaining binding at 1 µM (HPK1): 2%; remaining binding at 1 µM (FYN): 3%; remaining binding at 1 µM (LRRK2): 27%; remaining binding at 1 µM (TNNI3K): 1.8% |
| Cc1cn(-c2cc(NC(=O)c3cc(C#Cc4cnc5c(Nc6cnn(C)c6)cccn45)c(C)cc3F)cc(C(F)(F)F)c2)cn1 [Example 4, 2-fluoro-4-methyl-N-(3-(4-methyl-1H-imidazol-1-yl)-5-(trifluoromethyl)phenyl)-5-((8-((1-methyl-1H-pyrazol-4-yl)amino)imidazo[1,2-a]pyridin-3-yl)ethynyl)benzamide] | 30400 | 3360 | 2.1 | 60 | > 5000 | < 50 | 96 | 4.7 | 40 | 15 | 56 | 4.1 | 94 | 37 | 57 | 4.5 | 35 | 90 | 83 | 78 | % Cont @ 1 uM [3]: 24%; remaining binding at 1 µM (TNK2): 91%; remaining binding at 1 µM (HPK1): 41%; remaining binding at 1 µM (FYN): 32%; remaining binding at 1 µM (LRRK2): 92%; remaining binding at 1 µM (TNNI3K): 41% |

Reference: patent publication US12673945B2, “3-((8-((1H-pyrazol-4-yl)amino)imidazo[1,2-a]pyridin-3-yl)ethinyl)-n-phenylbenzamide derivative, method for preparing same, and pharmaceutical composition containing same as active ingredient for prevention or treatment of cancer” (DAEGU-GYEONGBUK MEDICAL INNOVATION FOUNDATION, priority 2020, dated 2026)
